What all share (format): cell-based, human
Assay [1] concerns CaSki (HPV16-positive) cancer cells. As to the kind of experiment: Soft agar colony formation assay, CaSki. As to conditions: 14 days, DMSO 88.17±5.92. As to the method: (§1) FIGS. 4A-4D HBX 19818 inhibited transformation of CaSki cells, but not SCC25 cells. The representative images showing the whole-well view and morphology of colonies formed by (FIG. 4A) CaSki (HPV16-positive) and (FIG. 4C) SCC25 (HPV-negative) cancer cells. Cells were seeded into 0.35% agarose gel containing DMEM with 10% FBS, and grew for 14 days. The agarose gel was stained with crystal violet, and images were taken using a digital camera. The colony morphology was observed using an optical microscope at 100× magnification. The bar chart comparing the number of colonies of (FIG. 4B) CaSki or (FIG. 4D) SCC25 cells with DMSO or HBX 19818 at concentrations indicated (n=3). Data indicated are mean±standard error of the mean (SEM). *: P<0.05.
(§2) We performed a soft agar colony formation assay to assess the ability of CaSki and SCC25 to grow in an anchorage-independent manner, in the presence or absence of HBX 19818 treatment. CaSki and SCC25 cells were seeded into 0.7% soft agar containing 2×DMEM and 20% FBS. The cells were incubated at 37° C. for 14 days. After a 2-week incubation, the agarose gel was stained with crystal violet. Colonies formed were counted and measured. We observed that CaSki cells treated with DMSO formed a dramatically higher number of colonies (88.17±5.92) than those treated with 6 μM of HBX 19818 (62.67±2.03) (FIGS. 4A and 4B). […]

Assay [2] concerns SCC25 (HPV-negative) cancer cells. As to the kind of experiment: Soft agar colony formation assay, SCC25. As to conditions: SCC25, HBX 19818 versus DMSO, 14 days. As to the method: as §1, §2
Assay [3] deals with CaSki (HPV-positive) cancer cells. As to the kind of experiment: Matrigel invasion assay, CaSki. The conditions noted are these: 24-hr, DMSO 100%. As to the method: (§3) FIGS. 6A-6D. […] The representative images showing the cell invasion of (FIG. 6A) CaSki (HPV-positive) and (FIG. 6C) SCC25 (HPV-negative) cancer cells in the presence of DMSO (vehicle control) or HBX 19818 at concentrations indicated. Cells were seeded into the invasion chamber with plain medium, followed by treatment with either DMSO or HBX 19818 for 24 hours. Cell invasion was observed and recorded using an optical microscope at 40× magnification. The bar graph comparing the relative cell invasion ability of (FIG. 6B) CaSki and (FIG. 6D) SCC25 with DMSO or HBX 19818 (n=3). Data indicated are mean±standard error of the mean (SEM). **: P<0.01; ***: P<0.001.
(§4) We next examined the ability of CaSki and SCC25 cells to invade through Matrigel, which mimics the basement membrane. Approximately 5×10^4 of CaSki and SCC25 cells were seeded into the inserts containing serum-free DMEM medium with either DMSO or HBX 19818. We included MCF7, a non-invasive breast cancer cell line as a negative control. DMEM supplemented with 20% FBS was added into the bottom chamber to attract cells to migrate from the upper to the lower surface of the inserts. After 24-hr incubation at 37° C., the non-invasive cells on the upper surface were removed using cotton swabs. Cells on the lower surface were fixed and stained using hematoxylin. […]

The test system of assay [4] is SCC25 (HPV-negative) cancer cells. As to the kind of experiment: Cell proliferation, cell counting kit-8 (CCK8) assay, SCC25. As to conditions: DMSO 10.45±0.88 folds. How it is done: FIGS. 3A-3B HBX 19818 inhibited proliferation of CaSki cells, but not SCC25 cells. The growth curves showing the cell proliferation of (FIG. 3A) CaSki (HPV16-positive) and (FIG. 3B) SCC25 (HPV-negative) cancer cells in the presence or absence of HBX 19818. Cell proliferation of CaSki was assessed using cell counting kit 8 (CCK8) assay. Cells were seeded into 96-well plates and incubated with either DMSO (vehicle control) or HBX 19818 at 3 μM or 6 μM for different days as indicated. Optical density (OD) value at 450 nm indicating relative proliferation was measured daily (n=3). Error bars indicate standard error of the mean (SEM).
We assessed the ability of CaSki (HPV16 positive cells) and SCC25, which are HPV-null cells, to proliferate using a cell counting kit-8 (CCK8) assay. This assay measures the ability of viable cells to metabolize soluble tetrazolium salt (WST-8) to orange formazan, in which the latter can be measured at optical density (OD) of […]. A day prior to drug treatment, CaSki and SCC25 were seeded into each well of 96-well plates at a density of 2000 cells/well in 100 μL of DMEM containing 10% FBS. The cells were treated with either DMSO (vehicle control) or HBX 19818 at 3 μM and 6 μM for 24, 72, and 96 hrs. […] The OD value of the medium at 450 nm was measured using LEDETECT 96 microplate reader (Labexim Products).

Assay [5] shares this test system. As to the kind of experiment: Matrigel invasion assay, SCC25. The conditions noted are these: SCC25, HBX 19818 versus DMSO, 24-hr. How it is done:
as §3, §4

We go through one substance from patent publication US20240009182A1, “REPURPOSED COMPOUND AS THERAPEUTIC FOR HPV-ASSOCIATED CANCERS” (The Chinese University of Hong Kong, priority 2022, published 2024).

For the substance HBX 19818, the figures for the Number of colonies in assay [1] (3 μM), in assay [1] (6 μM) and in assay [2] were 74.67±7.99, 62.67±2.03 and “no difference in the number of colonies”, respectively. Also, the figures for the Relative invasive ability in assay [3] (3 μM) and in assay [3] (6 μM) were 30%±2.97% and 13.85%±1.21%, respectively. Moreover, the “Cell proliferation ability (relative OD 450 nm)” value was determined as 10.12±0.94 folds in assay [4] (SCC25, 3 μM) and 7.29±1.24 folds in assay [4] (SCC25, 6 μM). For the same substance, in assay [5], the Invasive ability result was “similar”.
